Test results from patent publication US12630516B2, “Compounds” (NRG Therapeutics Ltd., priority 2020, dated 2026).
Values after ≈ are worked out from the molar mass of the structure shown.

What was measured:
[1] = tested on: mPTP; experiment: mPTP activity (Ca2+ retention, Fluo5N FLIPR) assay in isolated rat liver mitochondria; type: biochemical; conditions: average value from multiple experiments (n ≥ 2)
Text: Pharmacological inhibition or modulation of the mPTP can be measured in well characterised ‘Ca^2+ retention’ assays performed in isolated mitochondria. In vitro, isolated mitochondria rapidly sequester exogenous Ca^2+ until the intramitochondrial Ca^2+ concentration reaches the threshold for mPTP activation. Once the pore is activated, mitochondrial integrity is compromised and the stored Ca^2+ is released. The distribution of Ca^2+ between extra- and intra-mitochondrial compartments can be measured in real time with the use of membrane-impermeant Ca^2+ sensitive fluorescent dyes. Depending on the configuration of the assay, inhibition or modulation of the mPTP either delays the opening of the pore or increases the concentration of Ca^2+ required to induce mPTP opening.
MPTP activity was measured in mitochondria freshly isolated from female Sprague Dawley (250 to 300 gram) rat livers using the following method. Cervical dislocation was performed on the rat. The liver was then perfused in-situ with ˜40 ml cold Dulbecco's Phosphate Buffered Saline (DPBS) prior to dissection and transferred into 30 ml Isolation Buffer (250 mM Sucrose, 10 mM KCl, 1 mM EGTA, 1 mM EDTA, 25 mM HEPES, adjusted to pH 7.5 with 1M NaOH). Each lobe of the liver was then removed from the buffer, minced using tweezers and a scalpel into ˜5 mm pieces then transferred into a 50 ml Potterton dounce homogenization tube on ice containing 30 ml ice-cold centrifugation buffer (300 mM Trehalose, 25 mM HEPES, 1 mM EGTA, 1 mM EDTA, 10 mM KCl, adjusted to pH 7.5 with 1M NaOH and supplemented with 0.1% bovine serum albumin (BSA) and complete protease inhibitor cocktail (one tablet of inhibitor per 50 mls of buffer). Homogenisation was carried out using a teflon pestle at 1800 rpm. The slurry was centrifuged at 800 g for 10 min at 4° C., then the supernatant centrifuged at 10,000 g for 10 min. The pellet was washed once with FLIPR assay buffer (75 mM Mannitol, 25 mM Sucrose, 5 mM Potassium Phosphate Monobasic, 20 mM Tr is base, 100 mM KCl, 0.1% BSA adjusted to pH 7.4 with 5M HCl) centrifuged again, then resuspended in FLIPR assay buffer to a concentration of 8.8 mg/ml protein.
Tested compounds (10 mM stock in DMSO) were serially diluted in DMSO in half log steps to generate 10 test concentrations (final concentrations in assay 30 μM to 1 nM). An intermediate dilution of 5 μl DMSO samples into 247 μl FLIPR assay buffer was carried out prior to transfer of 5 μl into duplicate wells of a 384 well polypropylene assay plate. Control wells were 0.5% (v/v) DMSO and 5 μM cyclosporin A.
A stock mitochondria/Fluo5N assay solution was prepared in 5.6 ml FLIPR assay buffer (at RT) supplemented with succinate disodium salt (10 mM), rotenone (1 μM), Fluo5N pentapotassium salt (2 μM) and 1 ml mitochondria suspension, then transferred (15 μl) into the assay plate containing test compounds and incubated for 10 min at RT. Assay plates were then transferred to a FLIPR Tetra plate reader (Molecular Devices). Dye fluorescence was then measured every 3 sec for a total of 10 min. After 12 sec, a 2.5 μl bolus of CaCl2 (75 μM) was added from a source plate containing 675 μM CaCl2 in FLIPR assay buffer. IC50 values for tested compounds were calculated using the fluorescence value collected at the 10 min timepoint with % inhibition calculated using the DMSO control and cyclosporin A values as […] respectively.

[2] = PBS and FaSSIF solubility; type: physicochemical; conditions: for solubility at 2 h: FaSSIF, kinetic from dmso stock, Fasted state simulated intestinal fluid, 2 hr at 25° C.
Method: Test compounds were prepared as 10 mM stocks in DMSO and 15 μl samples transferred in duplicate into 1.5 mL glass flat bottom vials (BioTech Solutions). Fasted state simulated intestinal fluid (FaSSIF) or PBS (pH 7.4) was added to each vial to final volume of 500 μl. One PTFE encapsulated stir stick (V&P Scientific) was placed in each vial before sealing with PTFE/SIL plugs (BioTech Solutions). Vials were shaken at 1100 rpm for 2 hr at 25° C. Samples were then filtered through MultiScreen Solvinert filter plates (Millipore) via vacuum filtration. Aliquots of filtrate (5 μl) plus 5 μl DMSO were diluted in 490 μl 50% acetonitrile in water containing internal standard. The filtrate was analysed and quantified against a standard of known concentration using LC-MS/MS. Solubility values of the test compound and control compound were calculated as follows: [Sample]=(Area ratiossample*INJ VOL STD*DFSample*[STD])/(Area ratio STD*INJ VOLSample).

[3] = Hepatocyte clearance assay, primary rat hepatocytes; type: in vitro ADME; conditions: average value from two experiments
Method: (§1) In vitro clearance studies were performed in primary rat and human hepatocytes (BioIVT). Vials of cryopreserved rat or human hepatocytes were thawed in a 37° C. water bath for 2 min. Cells were transferred into thawing medium (Williams' Medium E containing 30% Percoll, 1×GlutaMAX-1, 15 mM HEPES, 5% fetal bovine serum (FBS), 4 μg/ml insulin, 1 μM dexamethasone), centrifuged at 100 g for 10 min then resuspended in culture medium (Leibovitz's L-15 Medium) at a concentration of 0.5×10^6 viable cells/mL (number of viable cells assessed using AO/PI staining). Hepatocytes (198 μL) were transferred into wells of a 96-well non-coated plate and placed in a 37° C. incubator for 10 min. Test compound solutions were prepared from 10 mM stocks in DMSO, diluted to 100 μM in 50% (v/v in water) acetonitrile. Test compound samples (2 μl) were added to each well of hepatocytes and incubated at 37° C. […] Peak areas were determined from extracted ion chromatograms. The slope value, k, was determined by linear regression of the natural logarithm of the remaining percentage of the parent drug vs. incubation time curve. The in vitro half-life (in vitro t½) was determined from the slope value: in vitro t½=0.693/k. […]

[4] = Hepatocyte clearance assay, primary human hepatocytes; type: in vitro ADME; conditions: average value from two experiments
Method: as §1

## Cc1n[nH]c2cc(/C=C/C(=O)N[C@H]3c4ccccc4OC[C@@H]3C)ccc12 (single isomer, unassigned) [Example 65c]
[1]
  mPTP Rat liver pIC50: 7.7
[2]
  solubility at 2 h: 9.2 µM (≈ 3.2 µg/mL)
[3]; primary rat hepatocytes (cryopreserved), read-out: Rat heps Clint uL/min/10^6 cells
  hepatocyte CLint at 1 µM: 37.9 µL/min/1e6 cells
[4]; primary human hepatocytes (cryopreserved), read-out: Human heps Clint uL/min/10^6 cells
  hepatocyte CLint at 1 µM: 9.4 µL/min/1e6 cells

## Cc1c(F)cccc1NC(=O)/C=C/c1ccc2oc(=O)[nH]c2c1 [Example 6, (E)-N-(3-fluoro-2-methylphenyl)-3-(2-oxo-2,3-dihydrobenzo[d]oxazol-5-yl)acrylamide]
[2]
  solubility at 2 h: 18 µM (≈ 5.62 µg/mL)

## Cc1c(F)cccc1NC(=O)/C=C/c1ccc2cn[nH]c2c1 [Comparative Example 1, (E)-N-(2-methyl-3-fluorophenyl)-3-(1H-indazol-6-yl)acrylamide, reference compound]
[2]; PBS pH 7.4, 2 hr at 25° C.
  Solubility PBS uM (pH 7.4): 0.9 uM
[3]
  Rat heps Clint uL/min/10^6 cells: 89 uL/min/10^6 cells
[4]
  Human heps Clint uL/min/10^6 cells: 13 uL/min/10^6 cells

## O=C(/C=C/c1ccc2c(C(F)(F)F)n[nH]c2c1)NC1CCc2ccccc21 (stereo not drawn) [Example 28, (E)-N-(2,3-dihydro-1H-inden-1-yl)-3-(3-(trifluoromethyl)-1H-indazol-6-yl) acrylamide]
[1]
  mPTP Rat liver pIC50: 6.7

## Cc1n[nH]c2cc(/C=C/C(=O)N[C@@H]3CCCC[C@H]3C)ccc12 (racemic) [Example 43, Racemic-(E)-3-(3-methyl-1H-indazol-6-yl)-N-((1R,2R)-2-methylcyclohexyl)acrylamide]
[1]
  mPTP Rat liver pIC50: 6.3

## CO[C@H]1Cc2ccccc2[C@@H]1NC(=O)/C=C/c1ccc2c(Cl)n[nH]c2c1 [Example 72, (E)-3-(3-chloro-1H-indazol-6-yl)-N-((1S,2S)-2-methoxy-2,3-dihydro-1H-inden-1-yl)acrylamide]
[1]
  mPTP Rat liver pIC50: 8.2

## O=C(/C=C/c1cc2[nH]nnc2cc1F)NC1CCc2ccccc21 (stereo not drawn) [Example 27, (E)-N-(2,3-dihydro-1H-inden-1-yl)-3-(5-fluoro-1H-benzo[d][1,2,3]triazol-6-yl) acrylamide]
[1]
  mPTP Rat liver pIC50: 6.6
